Test results taken from US20050042283A1, “Histamine and CCK2/gastrin receptor blockade in the treatment of acid-peptic disease and cancer” (UNIVERSITY OF MASSACHUSETTS, priority 2003, published 2005).

What was measured:
[1] = tested on: Helicobacter felis; experiment: H. felis infection status (Warthin-Starry staining, IgG ELISA, real-time PCR); format: in vivo; conditions: quantitative real-time PCR; n=6
Description: The insulin-gastrin (INS-GAS) transgenic mice (FVB/N background) have been described previously (Wang, T. C. et al., 2000; Wang T. C. et al., 1993) and were free of specific pathogens. Animals were housed in microisolator, solid-bottomed polycarbonate cages, fed a commercially prepared pelleted diet, and given water ad libitum. One hundred twenty four (124) male INS-GAS mice at 2 or 3 months of age were inoculated with Helicobacter felis (ATCC 49179) as previously described (Wang, T. C. et al., 2000). Infection status was confirmed at 14 weeks and 26 weeks post inoculation by enzyme-linked immunosorbent assay (ELISA) to measure immunoglobulin IgG antibody to H. felis, and by quantitative real-time PCR assays of gastric corpus tissue at necropsy as described below. […]
At necropsy, linear strips extending from the squamocolumnar junction through the proximal duodenum were fixed in 10% neutral-buffered formalin, paraffin-embedded, cut at 5 microns, and stained with hematoxylin and eosin. Indices of injury in the gastric cardia/corpus and antrum were scored on an ordinal scale from 0 to 4 in increments of 0.5 by a single veterinary pathologist (A.B.R.) blinded to treatment groups. […]
Plasma gastrin levels (COOH-terminally amidated gastrin) were determined by radioimmunoassay using rabbit antiserum L2 that reacts similarly with G17 and […]. […]

[2] = tested on: enterochromaffin-like (ECL) cell; experiment: Gastric histology of loxtidine-treated South African rat; format: in vivo, Mastomys (African multimammate rat); conditions: treated for 16 weeks
Description: FIG. 2: Characteristics of loxtidine.

[3] = tested on: TNF-alpha; experiment: Real-time RT-PCR of cytokine expression: TNF-alpha; format: in vivo; conditions: 6 months, versus untreated mice
Experimental: Real-time RT-PCR assay of growth factors and cytokine expression profiles Total RNAs were extracted from a sample of whole stomach from each animal with Trizol (Invitrogen, Calif.) and five micrograms of total RNA were used for first strand cDNA synthesis using Superscript II cDNA amplification System (Invitrogen, Calif.) following manufacturer's instructions. Real-time PCR was performed as above using RT-PCR primers for each gene as listed below. All primers were designed using Lasergene ver5.0 software (DNASTAR inc., Madison, Wis.). Results were calculated by minus delta delta threshold cycle (-ΔΔCt) method (Livak, K. J. et al., 2001). Briefly, the threshold cycle Ct1 of each sample reaction was deducted from the threshold cycle Ct2 of GAPDH reaction for normalization, and then deducted from the threshold cycle Ct3 of calibration control (45 cycles in this experiment), i.e., the final result was represented by the formula; Ct3-(Ct1-Ct2). […]

1-methyl-5-((3-(3-(1-piperidinylmethyl)phenoxy)propyl)amino)-1H-1,2,4-triazole-3-ethanol [Loxtidine]
H. felis DNA copy numbers per gastric corpus DNA (copy/μg) compared with non drug treated mice [1]: no significant difference
Gastric histology finding [2]: enterochromaffin-like (ECL) cell neoplasia
TNF-alpha expression level ([3]; listed as Loxtidine alone): significantly lower level
TNF-alpha expression level ([3]; listed as loxtidine alone): significantly down-regulated
